Measured values from article PMC2891903 (The Journal of nutritional biochemistry, 2010).

Target: T1, vitamin D receptor (VDR) (Homo sapiens, UniProt P11473)
T1 sequence (P11473 1-427): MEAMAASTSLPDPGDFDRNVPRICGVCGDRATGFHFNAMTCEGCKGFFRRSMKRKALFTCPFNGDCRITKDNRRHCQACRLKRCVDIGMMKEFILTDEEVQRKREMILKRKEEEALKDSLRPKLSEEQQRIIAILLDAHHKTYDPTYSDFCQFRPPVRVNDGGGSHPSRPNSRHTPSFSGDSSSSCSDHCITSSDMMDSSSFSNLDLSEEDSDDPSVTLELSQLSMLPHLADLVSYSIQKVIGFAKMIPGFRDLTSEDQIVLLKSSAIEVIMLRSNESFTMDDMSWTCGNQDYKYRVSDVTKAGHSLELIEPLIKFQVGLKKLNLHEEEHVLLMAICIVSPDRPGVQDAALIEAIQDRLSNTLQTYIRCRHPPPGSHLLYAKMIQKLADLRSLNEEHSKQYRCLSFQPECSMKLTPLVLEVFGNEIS
T1 sequence (P19793 1-462 partner): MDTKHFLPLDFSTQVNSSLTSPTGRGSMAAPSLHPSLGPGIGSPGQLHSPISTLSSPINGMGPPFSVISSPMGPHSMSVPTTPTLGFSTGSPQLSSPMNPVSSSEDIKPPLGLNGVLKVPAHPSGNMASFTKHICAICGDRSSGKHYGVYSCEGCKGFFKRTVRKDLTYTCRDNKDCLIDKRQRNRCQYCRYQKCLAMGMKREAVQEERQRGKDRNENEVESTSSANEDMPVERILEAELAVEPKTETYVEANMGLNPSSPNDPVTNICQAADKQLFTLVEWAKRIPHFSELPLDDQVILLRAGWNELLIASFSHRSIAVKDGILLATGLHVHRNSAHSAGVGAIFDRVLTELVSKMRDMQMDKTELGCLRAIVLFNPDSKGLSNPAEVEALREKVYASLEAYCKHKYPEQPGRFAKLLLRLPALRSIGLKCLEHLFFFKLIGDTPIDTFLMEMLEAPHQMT
Assay: competitive displacement of [3H][…] from VDR in transfected COS-7 lysate
Format: binding

## COc1cc(/C=C/C(=O)CC(=O)/C=C/c2ccc(O)c(OC)c2)ccc1O [CM, curcumin]
  Ki: 2900 nM
